Data: patent US10086085B2, “Bifunctional cytotoxic agents” (priority 2014, dated 2018)

Tests used:
[1] = tested on: N87 (human gastric carcinoma derived from metastatic liver site); assay: Cytotoxicity assay for payloads (MTS), N87 cells; type: cell-based; conditions: Homo sapiens, 96 h; N87 cells, incubated with compounds for four days, MTS absorbance 490 nm; read-out: N87 IC50
Outline: (§1)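 Cells in RPMI 1640 with 10% FBS exposed to compounds for four days at 10 concentrations in duplicate. Viability read by MTS absorbance at 490 nm after 1.5 h, as % of untreated controls; IC50 from four-parameter logistic fit.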

HL60 (leukemia) = assay: Cytotoxicity assay for payloads (MTS), HL-60 cells; type: cell-based; conditions: Homo sapiens, 96 h, incubated with compounds for four days, MTS absorbance 490 nm
Outline: as §1

Structure (SMILES) | IC50 [1] [pM] | IC50 (HL60 (leukemia)) [pM]
NC(CC(=O)N1C[C@H]2C[C@@]23C1=CC(=O)c1ccccc13)CC(=O)N1C[C@H]2C[C@@]23C1=CC(=O)c1ccccc13 [Compound 166, 3-amino-1,5-bis[(1aS,9bR)-5-oxo-1a,2-dihydro-1H-benzo[e]cyclopropa[c]indol-3(5H)-yl]pentane-1,5-dione] | 5690 | 659
CC(=O)Oc1cc2c(c3c(C)c[nH]c13)[C@H](CCl)CN2C(=O)CC12CC(C(=O)N3C[C@@H](CCl)c4c3cc(OC(C)=O)c3[nH]cc(C)c43)(C1)C2 [Compound 97, (8S)-6-[(3-{[(1S)-5-(acetyloxy)-1-(chloromethyl)-8-methyl-1,6-dihydropyrrolo[3,2-e]indol-3(2H)-yl]carbonyl}bicyclo[1.1.1]pent-1-yl)acetyl]-8-(chloromethyl)-1-methyl-3,6,7,8-tetrahydropyrrolo[3,2-e]indol-4-yl acetate] | 222 | 9
O=C(c1cccc(C(=O)N2C[C@@H](CCl)c3c2cc(O)c2ccccc32)c1)N1C[C@@H](CCl)c2c1cc(O)c1ccccc21 [Compound 20, (S)-1,3-phenylenebis(((S)-1-(chloromethyl)-5-hydroxy-1H-benzo[e]indol-3(2H)-yl)methanone)] | 297000 | 1620
O=C(O)[C@H]1O[C@@H](Oc2cc3c(c4ccccc24)[C@H](CCl)CN3C(=O)CC23CC(C(=O)N4C[C@@H](CCl)c5c4cc(O)c4ccccc54)(C2)C3)[C@H](O)[C@@H](O)[C@@H]1O [Compound 179, (1S)-1-(chloromethyl)-3-[(3-{[(1S)-1-(chloromethyl)-5-hydroxy-1,2-dihydro-3H-benzo[e]indol-3-yl]carbonyl}bicyclo[1.1.1]pent-1-yl)acetyl]-2,3-dihydro-1H-benzo[e]indol-5-yl beta-D-glucopyranosiduronic acid] | 173000 | 14300
CC(=O)Oc1cc2c(c3ccccc13)[C@H](CCl)CN2C(=O)c1sc(C(=O)N2C[C@@H](CCl)c3c2cc(OC(C)=O)c2ccccc32)c2c1OCCCO2 [Compound 142, 3,4-dihydro-2H-thieno[3,4-b][1,4]dioxepine-6,8-diylbis[carbonyl(1S)-1-(chloromethyl)-1,2-dihydro-3H-benzo[e]indole-3,5-diyl] diacetate] | ≥ 100000 | ≥ 10000
Cc1c[nH]c2c1[C@@]13C[C@@H]1CN(C(=O)C14CC(C(=O)N5C[C@H]6C[C@@]67C5=CC(=O)c5[nH]cc(C)c57)(C1)C4)C3=CC2=O [Compound 135, (3bR,4aS,3b′R,4a′S)-6,6′-(bicyclo[1.1.1]pentane-1,3-diyldicarbonyl)bis(3-methyl-4,4a,5,6-tetrahydrocyclopropa[c]pyrrolo[3,2-e]indol-8(1H)-one)] | 19 | 5
CC(=O)Oc1cc2c(c3c(C)c[nH]c13)[C@H](CCl)CN2C(=O)C12CCC(C(=O)N3C[C@@H](CCl)c4c3cc(OC(C)=O)c3[nH]cc(C)c43)(CC1)CC2 [Compound 85, bicyclo[2.2.2]octane-1,4-diylbis[carbonyl(1S)-1-(chloromethyl)-8-methyl-1,6-dihydropyrrolo[3,2-e]indole-3,5(2H)-diyl]diacetate] | 53 | 5
O=C(c1cccc(C(=O)N2C[C@@H](CCl)c3c2cc(O)c2ccccc32)n1)N1C[C@@H](CCl)c2c1cc(O)c1ccccc21 [Compound 18, (S)-pyridine-2,6-diylbis(((S)-1-(chloromethyl)-5-hydroxy-1H-benzo[e]indol-3(2H)-yl)methanone)] | 174000 | 2190
CC(=O)Oc1cc2c(c3c(C)c[nH]c13)[C@H](CCl)CN2C(=O)C12CC(C(=O)N3C[C@@H](CCl)c4c3cc(OC(C)=O)c3[nH]cc(C)c43)(C1)C2 [Compound 91, bicyclo[1.1.1]pentane-1,3-diylbis[carbonyl(1S)-1-(chloromethyl)-8-methyl-1,6-dihydropyrrolo[3,2-e]indole-3,5(2H)-diyl]diacetate] | 57 | 4
O=C(CNCC(=O)N1C[C@@H](CCl)c2c1cc(OP(=O)(O)O)c1ccccc21)N1C[C@@H](CCl)c2c1cc(OP(=O)(O)O)c1ccccc21 [Compound 173, iminobis[(1-oxoethane-2,1-diyl)(1S)-1-(chloromethyl)-1,2-dihydro-3H-benzo[e]indole-3,5-diyl] bis[dihydrogen (phosphate)]] | 13100 | 169
CC(=O)Oc1cc2c(c3ccccc13)[C@H](CCl)CN2C(=O)c1nnc(C(=O)N2C[C@@H](CCl)c3c2cc(OC(C)=O)c2ccccc32)s1 [Compound 144, 1,3,4-thiadiazole-2,5-diylbis[carbonyl(1S)-1-(chloromethyl)-1,2-dihydro-3H-benzo[e]indole-3,5-diyl] diacetate] | > 10000 | 3000
Cc1c[nH]c2c(O)cc3c(c12)[C@H](CCl)CN3C(=O)C12CC(C(=O)N3C[C@@H](CCl)c4c3cc(O)c3[nH]cc(C)c43)(C1)C2 [Compound 147, bicyclo[1.1.1]pentane-1,3-diylbis{[(1S)-1-(chloromethyl)-5-hydroxy-8-methyl-1,6-dihydropyrrolo[3,2-e]indol-3(2H)-yl]methanone}] | 17 | 3
CC(=O)Oc1cc2c(c3ccccc13)[C@H](CCl)CN2C(=O)c1cc2cc(NC(=O)Nc3ccc4[nH]c(C(=O)N5C[C@@H](CCl)c6c5cc(OC(C)=O)c5ccccc65)cc4c3)ccc2[nH]1 [Compound 149, (1S)-3-[(5-{[(2-{[(1S)-5-(acetyloxy)-1-(chloromethyl)-1,2-dihydro-3H-benzo[e]indol-3-yl]carbonyl}-1H-indol-5-yl)carbamoyl]amino}-1H-indol-2-yl)carbonyl]-1-(chloromethyl)-1,2-dihydro-3H-benzo[e]indol-5-yl acetate] | 132 | 7
O=C(c1ccc(C(=O)N2C[C@@H](CCl)c3c2cc(O[C@@H]2O[C@H](CO)[C@H](O)[C@H](O)[C@H]2O)c2ccccc32)s1)N1C[C@@H](CCl)c2c1cc(O)c1ccccc21 [Compound 145, ((S)-1-(chloromethyl)-5-(((2S,3R,4S,5R,6R)-3,4,5-trihydroxy-6-(hydroxymethyl)tetrahydro-2H-pyran-2-yl)oxy)-1,2-dihydro-3H-benzo[e]indol-3-yl)(5-((S)-1-(chloromethyl)-5-hydroxy-2,3-dihydro-1H-benzo[e]indole-3-carbonyl)thiophen-2-yl)methanone] | 130 | 51
NC(CC(=O)N1C[C@@H](CCl)c2c1cc(O)c1ccccc21)CC(=O)N1C[C@@H](CCl)c2c1cc(O)c1ccccc21 [Compound 40, 3-Amino-1,5-bis-((S)-1-chloromethyl-5-hydroxy-1,2-dihydro-enzo[e]indol-3-yl)-pentane-1,5-dione] | 1880 | 177
